Test results published in patent publication US20150307549A1, “AGENT FOR PREVENTING ARTERIOSCLEROSIS, AGENT FOR SUPPRESSING VASCULAR INTIMAL THICKENING AND AGENT FOR IMPROVING VASCULAR ENDOTHELIAL FUNCTION” (CALPIS Co., LTD, priority 2006, published 2015).

Tests used:
[1] = system: thoracic aorta ring of Wistar rats; experiment: Endothelium-dependent vasodilator response of thoracic aorta ring of L-NAME-treated rats (Magnus apparatus); assay type: in vivo, rat; conditions: for Degree of vasodilation compared to the group given only L-NAME (in words): given together with L-NAME in drinking water for one week
Procedure: Wistar rats (7 weeks of age, male) as the test animals were acclimatized for one week. A nitric oxide synthesis inhibitor, NG-nitro-L-arginine methyl ester hydrochloride (L-NAME, manufactured by SIGMA-ALDRICH CORP.) was dissolved in drinking water at the concentration of 1 g/L, and similarly, L-NAME and Val-Pro-Pro synthesized above at 1 g/L and 0.3 g/L, respectively, and L-NAME and Ile-Pro-Pro synthesized above at 1 g/L and 0.3 g/L, respectively. The rats were allowed free access to the prepared drinking water for one week. As a control, only the drinking water without L-NAME dissolved therein was given to a non-treatment group.
Then, the rats were subjected to fatal exsanguination under diethyl ether anesthesia. The thoracic aorta was taken out, cut into 2 mm long, and made into an aorta ring. The ring was set in a Magnus apparatus (product name “micro tissue organ bath MTOB-1Z”, manufactured by LABO SUPPORT CO., LTD.) filled with 5 ml of Tyrode's solution (composition: 158.3 mM of NaCl, 4.0 mM of KCl, 2.0 mM of CaCl2, 1.05 mM of MaCl2, 0.42 mM of NaH2PO4, 10.0 mM of NaHCO3, and 5.6 mM of glucose; pH 7.4, 37±0.5° C.), and allowed to equilibrate with the resting tension of 2.0 g. The aorta ring was then allowed to constrict with 1 μM of phenylephrine
The degree of vasodilation by the response was determined as a ratio to the constriction with 1 μM of phenylephrine. In the Table, each value is an average of each group of 8 animals.
In the Table, each value is an average of each group of 9 animals.

[2] = system: arteriosclerosis; conditions: administration; Non-patent Publication 5; cited from earlier work
[3] = system: ApoE knockout mice; experiment: Confirmatory test for effect of inhibiting vascular intimal thickening (Elastica-van Gieson stain, intima/media area ratio); assay type: in vivo, mouse; conditions: 31 weeks; for Inhibition of vascular intimal thickening (in words): Example 2-2, Feeds 1 to 6 versus control; for Degree of Intimal Thickening: intima/media area ratio
Procedure: ApoE knockout mice (6 weeks of age, male, 8 animals for each group) were allowed free access to Feeds 1 to 7 as shown in Table 6 for 31 weeks. Then the thoracic aorta of the mice was taken out, fixed in 10% neutral buffered formalin, and subjected to the Elastica-van Gieson stain. Micrographs of the tissue specimens were scanned into the computer, and the degree of vascular intimal thickening (intima/media area ratio (%)) was calculated using an image processing software (Image J). The values of the degree of thickening shown in the table are the averages of each group.
The confirmatory test for the effect of inhibiting vascular intimal thickening was conducted on each of the solid feeds thus produced in the same way as in Example 2-2, and the degree of intimal thickening (intimal/media area ratio (%)) was calculated. The values of the degree of intimal thickening in the table are the averages of each group.

Compound: COC(=O)[C@@H](N)CCCN=C(N)N[N+](=O)[O-].Cl [L-NAME, NG-nitro-L-arginine methyl ester hydrochloride, reference compound]
- Degree of vasodilation ([1]; 10 μM acetylcholine, ratio to constriction with 1 μM phenylephrine, drinking water one week: L-NAME 1 g/L, peptide 0.3 g/L, enalapril 0.5 mg/L): 26.1%

Compound: CCOC(=O)[C@H](CCc1ccccc1)N[C@@H](C)C(=O)N1CCC[C@H]1C(=O)O [enalapril, reference compound]
- Degree of vasodilation compared to the group given only L-NAME (in words) [1]: no significant difference
- Arteriosclerosis inhibitory effect [2]: does not result in an arteriosclerosis inhibitory effect

Compound: Ile-Pro-Pro
- Degree of vasodilation compared to the group given only L-NAME (in words) [1]: significantly higher
- Inhibition of vascular intimal thickening (in words) [3]: inhibited vascular intimal thickening concentration-dependently
- Degree of Intimal Thickening ([3]; Feed 3: 0.0017 wt % in feed (Ile-Pro-Pro 17.1 mg/kg feed)): 25.3%
- Degree of Intimal Thickening ([3]; Feed 4: 0.0170 wt % in feed (Ile-Pro-Pro 171.0 mg/kg feed)): 20.5%

Compound: Val-Pro-Pro
- Degree of vasodilation compared to the group given only L-NAME (in words) [1]: significantly higher
- Inhibition of vascular intimal thickening (in words) [3]: inhibited vascular intimal thickening concentration-dependently
- Degree of Intimal Thickening ([3]; Feed 1: 0.0034 wt % in feed (Val-Pro-Pro 34.1 mg/kg feed)): 21.8%
- Degree of Intimal Thickening ([3]; Feed 2: 0.0340 wt % in feed (Val-Pro-Pro 341.0 mg/kg feed)): 18.7%
